Source: ChEMBL document CHEMBL1153281, “Synthesis and evaluation of aniline headgroups for alkynyl thienopyrimidine dual EGFR/ErbB-2 kinase inhibitors” (Bioorg Med Chem Lett, 2009)
pIC50: −log10 of the molar value.

Key:
[1] = target: T1, Receptor tyrosine-protein kinase erbB-2 (Homo sapiens, UniProt P04626); test: Inhibition of ErbB2 by HTRF assay
[2] = system: HN5; test: Antiproliferative activity against human HN5 cells overexpressing EGFR after 3 days; assay type: functional, cell-based; settings: HN5, 72 h
[3] = system: BT-474; test: Antiproliferative activity against human BT474 cells overexpressing ErbB2 after 3 days; assay type: functional, cell-based; settings: BT-474, 72 h
[4] = system: HFF; test: cells; assay type: ADME, cell-based; settings: Homo sapiens
[5] = target: T2, Epidermal growth factor receptor (Homo sapiens, UniProt P00533)
Description: Inhibition of EGFR by HTRF assay

[6] = target: T1, Receptor tyrosine-protein kinase erbB-2; test: Inhibition of ErbB2 by SPA assay
[7] = system: Mus musculus; test: Dose normalized AUC in mouse at 10 mg/kg, po after 6 hrs; assay type: ADME, organism-based; parameters: time < 6 hr, dose 10 mg/kg, route oral; settings: in vivo
[8] = Protein binding in rat plasma by HPLC; assay type: ADME, cell-free; settings: read-out: PPB (converted)
[9] = target: T2, Epidermal growth factor receptor; test: Inhibition of EGFR by SPA assay
[10] = system: HN5; test: Ratio of IC50 for human HN5 cells to IC50 for hman BT474 cells; assay type: functional

T1 sequence (P04626 whole entry): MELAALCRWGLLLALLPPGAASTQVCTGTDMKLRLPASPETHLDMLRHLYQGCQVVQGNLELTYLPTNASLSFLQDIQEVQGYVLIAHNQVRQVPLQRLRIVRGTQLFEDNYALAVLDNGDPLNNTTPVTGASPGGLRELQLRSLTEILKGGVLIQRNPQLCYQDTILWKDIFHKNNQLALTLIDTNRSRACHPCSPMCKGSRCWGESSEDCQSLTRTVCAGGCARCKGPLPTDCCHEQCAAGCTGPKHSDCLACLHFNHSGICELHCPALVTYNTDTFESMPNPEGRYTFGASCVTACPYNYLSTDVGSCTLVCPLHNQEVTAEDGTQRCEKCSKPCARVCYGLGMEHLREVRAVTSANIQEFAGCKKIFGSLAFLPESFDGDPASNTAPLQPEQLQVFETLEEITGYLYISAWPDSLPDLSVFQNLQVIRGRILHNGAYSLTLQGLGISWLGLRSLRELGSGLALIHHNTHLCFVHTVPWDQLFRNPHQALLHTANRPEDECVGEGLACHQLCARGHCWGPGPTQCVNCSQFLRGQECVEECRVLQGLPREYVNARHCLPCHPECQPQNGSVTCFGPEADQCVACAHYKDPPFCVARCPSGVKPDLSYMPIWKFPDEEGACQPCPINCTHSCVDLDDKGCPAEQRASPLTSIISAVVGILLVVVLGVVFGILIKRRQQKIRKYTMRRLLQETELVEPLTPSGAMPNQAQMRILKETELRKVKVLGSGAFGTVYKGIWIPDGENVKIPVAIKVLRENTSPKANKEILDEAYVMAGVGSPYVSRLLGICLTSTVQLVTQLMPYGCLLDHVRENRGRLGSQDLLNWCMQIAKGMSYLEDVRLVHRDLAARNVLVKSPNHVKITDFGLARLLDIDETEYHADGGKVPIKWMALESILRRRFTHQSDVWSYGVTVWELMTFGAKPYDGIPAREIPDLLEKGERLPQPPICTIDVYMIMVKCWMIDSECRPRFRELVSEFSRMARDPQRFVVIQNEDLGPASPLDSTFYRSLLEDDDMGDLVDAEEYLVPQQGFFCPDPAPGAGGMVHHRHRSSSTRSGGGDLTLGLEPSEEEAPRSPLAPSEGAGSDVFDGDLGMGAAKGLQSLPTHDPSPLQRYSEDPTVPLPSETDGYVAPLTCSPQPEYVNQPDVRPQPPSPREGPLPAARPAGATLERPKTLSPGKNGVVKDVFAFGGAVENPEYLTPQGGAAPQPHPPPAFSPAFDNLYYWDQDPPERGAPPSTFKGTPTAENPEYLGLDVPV
T2 sequence (P00533 whole entry): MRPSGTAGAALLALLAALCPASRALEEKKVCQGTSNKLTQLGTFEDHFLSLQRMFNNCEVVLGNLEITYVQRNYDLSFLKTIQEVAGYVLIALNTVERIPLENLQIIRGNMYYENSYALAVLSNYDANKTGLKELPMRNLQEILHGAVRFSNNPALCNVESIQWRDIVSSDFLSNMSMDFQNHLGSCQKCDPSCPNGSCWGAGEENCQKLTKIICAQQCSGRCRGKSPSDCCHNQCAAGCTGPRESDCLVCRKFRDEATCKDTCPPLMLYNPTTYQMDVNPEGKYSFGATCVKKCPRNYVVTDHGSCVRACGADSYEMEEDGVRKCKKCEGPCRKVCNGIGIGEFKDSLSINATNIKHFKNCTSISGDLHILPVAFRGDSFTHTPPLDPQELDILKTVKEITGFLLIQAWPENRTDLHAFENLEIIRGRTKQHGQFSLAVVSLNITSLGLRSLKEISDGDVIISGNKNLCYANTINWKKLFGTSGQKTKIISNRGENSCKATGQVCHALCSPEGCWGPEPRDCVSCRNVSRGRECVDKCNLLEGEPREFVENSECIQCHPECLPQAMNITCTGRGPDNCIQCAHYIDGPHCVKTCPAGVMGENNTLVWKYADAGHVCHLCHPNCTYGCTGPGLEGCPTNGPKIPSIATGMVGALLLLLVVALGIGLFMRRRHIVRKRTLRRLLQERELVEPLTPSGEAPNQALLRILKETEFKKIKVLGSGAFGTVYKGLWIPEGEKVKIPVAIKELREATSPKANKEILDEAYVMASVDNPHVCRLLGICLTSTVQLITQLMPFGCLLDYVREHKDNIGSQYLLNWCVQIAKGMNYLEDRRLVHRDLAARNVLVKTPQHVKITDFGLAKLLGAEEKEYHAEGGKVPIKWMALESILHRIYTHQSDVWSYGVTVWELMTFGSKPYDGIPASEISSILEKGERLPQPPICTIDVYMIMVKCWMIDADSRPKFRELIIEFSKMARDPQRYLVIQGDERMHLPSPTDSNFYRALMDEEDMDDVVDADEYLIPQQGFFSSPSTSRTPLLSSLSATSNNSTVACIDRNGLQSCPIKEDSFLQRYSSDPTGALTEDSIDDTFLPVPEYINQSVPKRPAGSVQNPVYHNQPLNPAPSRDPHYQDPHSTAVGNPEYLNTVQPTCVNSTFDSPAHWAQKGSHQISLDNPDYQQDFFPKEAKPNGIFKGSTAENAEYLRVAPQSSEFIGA

pIC50 [1] | pIC50 [3] | pIC50 [5] | pIC50 [6] | AUC [7] | fraction unbound [8] | pIC50 [9] | SMILES | pIC50 [2] | pIC50 [4] | Ratio IC50 [10]
6.74 | 6.92 | 6.17 | – | – | – | – | O=C(O[C@H]1CN[C@H](C#Cc2cc3ncnc(Nc4ccc5c(ccn5Cc5cscn5)c4)c3s2)C1)N1CCOCC1 | 6.26 | < 6.00 | –
– | 7.10 | – | 7.22 | 52 ng·h/mL/mg/kg | 0.033 | – | O=C(O[C@H]1CN[C@H](C#Cc2cc3ncnc(Nc4ccc(Oc5ccccn5)c(Cl)c4)c3s2)C1)N1CCOCC1 | 6.55 | < 6.00 | –
6.68 | 6.92 | 6.62 | – | – | – | – | O=C(O[C@H]1CN[C@H](C#Cc2cc3ncnc(Nc4ccc5c(c4)c(F)cn5Cc4ccccc4)c3s2)C1)N1CCOCC1 | 6.49 | < 6.00 | –
– | – | – | – | 51 ng·h/mL/mg/kg | 0.05 | – | O=C(O[C@H]1CN[C@H](C#Cc2cc3ncnc(Nc4ccc5c(cnn5Cc5cccc(F)c5)c4)c3s2)C1)N1CCOCC1 | 7.15 | < 6.00 | –
7.30 | 7.70 | 7.10 | – | 98 ng·h/mL/mg/kg | 0.027 | – | O=C(O[C@H]1CN[C@H](C#Cc2cc3ncnc(Nc4ccc5c(cnn5Cc5ccccc5)c4)c3s2)C1)N1CCOCC1 | 7.15 | < 6.00 | –
7.07 | 6.96 | 6.64 | – | – | – | – | O=C(O[C@H]1CN[C@H](C#Cc2cc3ncnc(Nc4ccc5c(cnn5S(=O)(=O)c5cccc(F)c5)c4)c3s2)C1)N1CCOCC1 | 6.27 | < 6.00 | –
6.66 | 7.00 | 5.78 | – | – | – | – | O=C(O[C@H]1CN[C@H](C#Cc2cc3ncnc(Nc4ccc(Sc5ccccn5)cc4)c3s2)C1)N1CCOCC1 | 6.42 | < 6.00 | –
6.74 | 6.85 | 6.55 | – | – | 0.03 | – | O=C(O[C@H]1CN[C@H](C#Cc2cc3ncnc(Nc4ccc(Oc5ccnc6ccc(F)cc56)c(Cl)c4)c3s2)C1)N1CCOCC1 | 6.41 | < 6.00 | –
– | 7.05 | – | – | 91 ng·h/mL/mg/kg | 0.02 | – | O=C(O[C@H]1CN[C@H](C#Cc2cc3ncnc(Nc4ccc(OCc5cccc(F)c5)c(Cl)c4)c3s2)C1)N1CCOCC1 [GW869810X] | 6.59 | < 6.00 | –
6.89 | 6.89 | 6.92 | – | – | – | – | CC(c1cccc(F)c1)n1ncc2cc(Nc3ncnc4cc(C#C[C@@H]5C[C@@H](OC(=O)N6CCOCC6)CN5)sc34)ccc21 (stereo partly specified) | 7.15 | < 6.00 | –
6.35 | 6.60 | 5.59 | – | – | – | – | O=C(O[C@H]1CN[C@H](C#Cc2cc3ncnc(Nc4ccc(OCc5cccc(F)c5)nc4)c3s2)C1)N1CCOCC1 | 6.31 | < 6.00 | –
– | 5.31 | – | 5.58 | – | – | – | O=C(O[C@H]1CN[C@H](C#Cc2cc3ncnc(Nc4ccc5c(ccn5CCc5ccccc5)c4)c3s2)C1)N1CCOCC1 | 5.69 | < 6.00 | –
6.10 | 6.82 | 6.20 | – | – | 0.024 | – | O=C(O[C@H]1CN[C@H](C#Cc2cc3ncnc(Nc4ccc(Sc5cccc(F)c5)c(Cl)c4)c3s2)C1)N1CCOCC1 | 6.51 | < 6.00 | –
– | 7.22 | – | 7.52 | 120 ng·h/mL/mg/kg | 0.031 | – | O=C(O[C@H]1CN[C@H](C#Cc2cc3ncnc(Nc4ccc(OCc5ccccn5)c(Cl)c4)c3s2)C1)N1CCOCC1 | 6.62 | < 6.00 | –
6.59 | 7.00 | 5.98 | – | – | – | – | O=C(O[C@H]1CN[C@H](C#Cc2cc3ncnc(Nc4ccc5c(Oc6ccccn6)cccc5c4)c3s2)C1)N1CCOCC1 | 6.92 | < 6.00 | –
– | 6.92 | – | 6.92 | – | – | 6.82 | O=C(O[C@H]1CN[C@H](C#Cc2cc3ncnc(Nc4ccc5c(ccn5S(=O)(=O)c5ccsc5)c4)c3s2)C1)N1CCOCC1 | 6.20 | < 6.00 | –
7.46 | 8.00 | 7.48 | – | – | – | – | O=C(O[C@H]1CN[C@H](C#Cc2cc3ncnc(Nc4ccc5c(cnn5Cc5cc(F)ccc5F)c4)c3s2)C1)N1CCOCC1 | 6.60 | < 6.00 | 20

SMILES | pIC50 [1] | pIC50 [3] | pIC50 [5] | pIC50 [6] | AUC [7] | fraction unbound [8] | pIC50 [9] | pIC50 [2] | pIC50 [4] | Ratio IC50 [10]
O=C(O[C@H]1CN[C@H](C#Cc2cc3ncnc(Nc4ccc(Cc5ccccc5)cc4)c3s2)C1)N1CCOCC1 | – | 7.15 | 6.62 | – | – | 0.036 | – | 6.57 | < 6.00 | –
O=C(O[C@H]1CN[C@H](C#Cc2cc3ncnc(Nc4ccc(OCc5cscn5)c(Cl)c4)c3s2)C1)N1CCOCC1 | 7.22 | 7.15 | 6.92 | – | – | 0.051 | – | 6.36 | < 6.00 | –
O=C(O[C@H]1CN[C@H](C#Cc2cc3ncnc(Nc4ccc5c(ccn5Cc5ccccc5)c4)c3s2)C1)N1CCOCC1 | 7.22 | 6.96 | 7.05 | – | – | – | – | 6.72 | < 6.00 | –
Cc1cc(Oc2ccc(Nc3ncnc4cc(C#C[C@@H]5C[C@@H](OC(=O)N6CCOCC6)CN5)sc34)cc2Cl)no1 | 6.43 | 6.89 | 6.40 | – | – | – | – | 5.84 | < 6.00 | –
